# Laboratory results: paper PMC11842024, “Reversible male contraception by targeted inhibition of serine/threonine kinase 33” (Science (New York, N.Y.), 2024)
# Legend:
# Test in all cases: NanoBRET target engagement intracellular kinase assay
# Format in all cases: cell-based
# Design in all cases: host or cells: HEK293 (HEK293T cultured)
# CLK1 = CLK1 (Homo sapiens, UniProt P49759)
# Method: (§1) NanoBRET Target Engagement intracellular kinase assay. HEK293T cells were cultured in […]
# (§2) The cell line underwent authentication by short tandem repeat (STR) profiling at Cytogenetics and Cell Authentication Core (CCAC) at MD Anderson Cancer Center. NanoBRET Target Engagement intracellular kinase assay, K-10 assay (Cat. # N2641), K-9 assay (Cat. # N2631), transfection reagent FuGENE HD (Cat. # E2311), transfection carrier DNA (Cat. # E4881), NanoLuc-STK33 fusion vector (Cat. # NV2111), NanoLuc-RET fusion vector (Cat. # NV1951), NanoLuc-CLK1 fusion vector (Cat. # NV1131), NanoLuc-CLK2 fusion vector (Cat. # NV1141), and NanoLuc-CLK4 fusion vector (Cat. # NV1151) were purchased from Promega. The measurement of test compound engagement with cellular target protein was performed in a 384-well format according to manufacturer’s instructions. HEK293 cells were transiently transfected with NanoLuc (STK33, RET, CLK1, CLK2, and CLK4) fusion vectors. After 36 hours of transfection, cells were treated with a fixed concentration of tracer (recommended by Promega) followed by compounds (inhibitors) for 2 hours of incubation. To determine the test compound […]
# (§3) 0.4 nM at a fixed tracer concentration. Staurosporine was measured in parallel as a positive control.
# (§4) Freshly prepared NanoBRET Nano-Glo substrate plus extracellular NanoLuc inhibitor was then added to initiate the subsequent bioluminescence resonance energy transfer (BRET) measurements using a CLARIOstar Plus BMG LABTECH plate reader. Data analysis was done by measuring the ratio of acceptor emission to donor emission (BRET ratio) and normalized by subtracting no-tracer-control-background. IC50 values were obtained by nonlinear regression using a four-parameter equation in GraphPad Prism 7 (San Diego, CA).
# CLK2 = CLK2 (Homo sapiens, UniProt P49760)
# Method: as §1, §2, §3, §4
# CLK4 = CLK4 (Homo sapiens, UniProt Q9HAZ1)
# Method: as §1, §2, §3, §4
# RET = RET (Homo sapiens, UniProt P07949)
# Method: as §1, §2, §3, §4
# STK33 = STK33 (Homo sapiens, UniProt Q9BYT3)
# Method: as §1, §2, §3, §4
# [1] = HEK293 cells, 2 hours incubation
# Sequence of STK33 (Q9BYT3 whole entry): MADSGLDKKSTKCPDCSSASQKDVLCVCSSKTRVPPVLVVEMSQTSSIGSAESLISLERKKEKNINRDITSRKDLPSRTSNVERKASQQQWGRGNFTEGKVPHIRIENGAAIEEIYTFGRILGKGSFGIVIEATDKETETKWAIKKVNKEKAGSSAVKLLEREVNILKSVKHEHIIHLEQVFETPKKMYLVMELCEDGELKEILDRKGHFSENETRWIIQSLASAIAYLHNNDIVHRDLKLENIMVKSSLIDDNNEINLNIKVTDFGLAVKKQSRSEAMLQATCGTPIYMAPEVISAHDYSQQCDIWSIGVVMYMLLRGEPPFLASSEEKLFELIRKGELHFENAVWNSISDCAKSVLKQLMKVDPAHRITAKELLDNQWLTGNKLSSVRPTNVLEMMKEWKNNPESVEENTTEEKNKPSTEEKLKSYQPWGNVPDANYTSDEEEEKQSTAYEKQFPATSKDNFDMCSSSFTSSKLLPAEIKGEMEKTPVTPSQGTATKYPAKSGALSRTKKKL
# Sequence of CLK2 (P49760 whole entry): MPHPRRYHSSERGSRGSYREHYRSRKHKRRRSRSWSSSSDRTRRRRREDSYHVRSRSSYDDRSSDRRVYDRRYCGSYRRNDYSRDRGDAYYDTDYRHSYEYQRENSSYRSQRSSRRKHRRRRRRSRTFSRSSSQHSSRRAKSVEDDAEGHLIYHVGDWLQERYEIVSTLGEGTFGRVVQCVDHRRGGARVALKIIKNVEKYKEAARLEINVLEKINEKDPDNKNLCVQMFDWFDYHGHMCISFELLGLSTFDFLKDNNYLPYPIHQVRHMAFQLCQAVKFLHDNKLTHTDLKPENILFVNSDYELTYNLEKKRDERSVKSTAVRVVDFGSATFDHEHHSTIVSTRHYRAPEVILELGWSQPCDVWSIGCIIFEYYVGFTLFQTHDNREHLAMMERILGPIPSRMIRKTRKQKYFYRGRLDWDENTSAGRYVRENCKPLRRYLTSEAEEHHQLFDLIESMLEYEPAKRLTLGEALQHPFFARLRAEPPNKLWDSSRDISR
# Sequence of CLK1 (P49759 whole entry): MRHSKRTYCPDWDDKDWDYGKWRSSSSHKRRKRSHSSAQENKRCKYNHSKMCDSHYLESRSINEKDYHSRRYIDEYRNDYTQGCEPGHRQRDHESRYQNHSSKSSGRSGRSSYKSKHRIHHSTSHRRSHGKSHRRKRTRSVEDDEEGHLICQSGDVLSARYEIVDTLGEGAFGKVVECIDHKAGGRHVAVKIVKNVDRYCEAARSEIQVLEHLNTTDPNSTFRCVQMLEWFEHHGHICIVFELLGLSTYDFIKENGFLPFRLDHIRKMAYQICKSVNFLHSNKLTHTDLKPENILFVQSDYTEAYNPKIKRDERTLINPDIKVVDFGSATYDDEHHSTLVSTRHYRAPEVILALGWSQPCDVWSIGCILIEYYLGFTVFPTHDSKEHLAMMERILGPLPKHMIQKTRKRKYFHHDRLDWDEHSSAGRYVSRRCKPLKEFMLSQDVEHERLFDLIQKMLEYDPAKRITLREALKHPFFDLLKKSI
# Sequence of RET (P07949 29-1114): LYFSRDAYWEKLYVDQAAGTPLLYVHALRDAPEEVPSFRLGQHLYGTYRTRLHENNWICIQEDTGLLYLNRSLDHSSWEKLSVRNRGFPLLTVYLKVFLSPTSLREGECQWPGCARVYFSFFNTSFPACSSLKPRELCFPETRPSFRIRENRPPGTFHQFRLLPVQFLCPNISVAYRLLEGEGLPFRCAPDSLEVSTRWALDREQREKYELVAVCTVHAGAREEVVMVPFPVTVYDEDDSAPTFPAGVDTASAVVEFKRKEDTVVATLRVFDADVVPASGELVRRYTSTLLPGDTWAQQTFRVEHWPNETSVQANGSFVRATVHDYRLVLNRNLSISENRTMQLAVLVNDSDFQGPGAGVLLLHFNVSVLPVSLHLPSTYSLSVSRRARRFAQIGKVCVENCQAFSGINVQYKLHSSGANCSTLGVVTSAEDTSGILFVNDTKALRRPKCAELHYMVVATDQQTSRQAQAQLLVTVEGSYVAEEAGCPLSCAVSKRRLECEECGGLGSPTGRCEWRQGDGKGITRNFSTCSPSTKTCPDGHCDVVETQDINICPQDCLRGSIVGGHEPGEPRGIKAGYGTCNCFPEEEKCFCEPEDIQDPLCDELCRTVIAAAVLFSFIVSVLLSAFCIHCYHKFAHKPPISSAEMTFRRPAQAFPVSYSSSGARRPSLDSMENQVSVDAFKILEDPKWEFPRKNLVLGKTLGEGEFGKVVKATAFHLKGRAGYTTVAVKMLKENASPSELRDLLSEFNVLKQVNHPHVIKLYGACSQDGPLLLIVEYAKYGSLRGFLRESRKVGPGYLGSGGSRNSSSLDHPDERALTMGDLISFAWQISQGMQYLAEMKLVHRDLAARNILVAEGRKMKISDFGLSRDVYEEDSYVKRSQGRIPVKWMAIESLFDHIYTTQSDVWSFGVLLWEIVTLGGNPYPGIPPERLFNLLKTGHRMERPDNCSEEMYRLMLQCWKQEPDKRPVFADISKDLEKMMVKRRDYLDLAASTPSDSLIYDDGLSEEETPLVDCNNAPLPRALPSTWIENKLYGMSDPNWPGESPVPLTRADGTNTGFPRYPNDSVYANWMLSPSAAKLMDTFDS
# Sequence of CLK4 (Q9HAZ1 whole entry): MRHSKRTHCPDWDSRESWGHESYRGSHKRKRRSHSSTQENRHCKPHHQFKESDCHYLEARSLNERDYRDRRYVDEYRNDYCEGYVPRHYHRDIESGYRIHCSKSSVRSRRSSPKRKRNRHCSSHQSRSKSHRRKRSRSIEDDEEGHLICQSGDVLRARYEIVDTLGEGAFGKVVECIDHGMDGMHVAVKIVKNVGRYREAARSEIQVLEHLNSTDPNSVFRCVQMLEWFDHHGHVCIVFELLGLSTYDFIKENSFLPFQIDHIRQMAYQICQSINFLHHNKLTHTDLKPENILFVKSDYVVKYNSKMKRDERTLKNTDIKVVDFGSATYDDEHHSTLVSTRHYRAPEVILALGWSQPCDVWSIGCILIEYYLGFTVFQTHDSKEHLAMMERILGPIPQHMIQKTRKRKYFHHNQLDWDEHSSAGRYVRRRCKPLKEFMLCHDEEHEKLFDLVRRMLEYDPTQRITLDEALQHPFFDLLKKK
smiles,measurement,setting,value
O=C(c1ccc2[nH]nc(C#Cc3ccccc3-c3ccccc3)c2c1)N1CC2(CCCNC2)C1 [CDD-2807],IC50,CLK1; [1],116 nM
same,Fold NanoBRET IC50 CLK1 over STK33 (in parentheses),CLK1; selectivity vs STK33,13 X
same,IC50,CLK2; [1],101 nM
same,Fold NanoBRET IC50 CLK2 over STK33 (in parentheses),CLK2; selectivity vs STK33,11 X
same,IC50,CLK4; [1],85 nM
same,Fold NanoBRET IC50 CLK4 over STK33 (in parentheses),CLK4; selectivity vs STK33,9 X
same,IC50,RET; [1],363 nM
same,Fold NanoBRET IC50 RET over STK33 (in parentheses),RET; selectivity vs STK33,39 X
same,"selectivity toward STK33 compared to CLK1, CLK2, CLK4, and RET",STK33,> 9 fold
same,IC50,STK33; [1],9.2 nM
